Assay results published in ChEMBL document CHEMBL2424644, “Synthesis and antiproliferative evaluation of novel benzoimidazole-contained oxazole-bridged analogs of combretastatin A-4” (Eur J Med Chem, 2013).

How the values were obtained:
HT-29 [1] = experiment: Cell cycle arrest in human HT-29 cells assessed as accumulation at S phase at 50 nM after 24 hrs by propidium iodide staining-based flow cytometric analysis (reference value: 24.39%); assay type: functional
HT-29 [2] = experiment: Cell cycle arrest in human HT-29 cells assessed as accumulation at G0/G1 phase at 12.5 nM after 24 hrs by propidium iodide staining-based flow cytometric analysis (reference value: 68.24%); assay type: functional
KB [3] = experiment: Cytotoxicity against human KB cells assessed as growth inhibition after 72 hrs by MTT assay; assay type: functional, cell-based
HT-29 [4] = experiment: Cell cycle arrest in human HT-29 cells assessed as accumulation at G2/M phase at 12.5 nM after 24 hrs by propidium iodide staining-based flow cytometric analysis (reference value: 7.37%); assay type: functional
KB [5] = experiment: Cytotoxicity against vincristine-resistant human KB cells assessed as growth inhibition after 72 hrs by MTT assay; assay type: functional, cell-based
BXPC-3 [6] = experiment: Cytotoxicity against human BxPC3 cells assessed as growth inhibition after 72 hrs by MTT assay; assay type: functional, cell-based; details: BXPC-3, 72 h
H22 [7] = experiment: Antitumor activity against mouse H22 cells allografted in KM mouse assessed as tumor growth inhibition at 15 mg/kg, ip administered on day 1 and 4 measured on day 8 relative to control; assay type: functional; details: route intraperitoneal, read-out: TGI
Mus musculus [8] = experiment: Toxicity in KM mouse allografted with mouse H22 cells assessed as body weight at 20 mg/kg, ip administered on day 1 measured on day 8 (reference value: 30 +/- 3.24 g); assay type: organism-based; set-up: dose 20 mg/kg, route intraperitoneal; details: in vivo
HT-29 [9] = experiment: Cytotoxicity against human HT-29 cells assessed as growth inhibition after 72 hrs by MTT assay; assay type: functional, cell-based; details: HT-29, 72 h
MCF7 [10] = experiment: Cytotoxicity against human MCF7 cells assessed as growth inhibition after 72 hrs by MTT assay; assay type: functional, cell-based; details: MCF7, 72 h
Mus musculus [11] = experiment: Toxicity in KM mouse allografted with mouse H22 cells assessed as body weight at 10 mg/kg, ip administered on day 1, 3, 5, 7 measured on day 8 (reference value: 30 +/- 3.24 g); assay type: organism-based; set-up: dose 10 mg/kg, route intraperitoneal; details: in vivo
HT-29 [12] = experiment: Cell cycle arrest in human HT-29 cells assessed as accumulation at S phase at 100 nM after 24 hrs by propidium iodide staining-based flow cytometric analysis (reference value: 24.39%); assay type: functional
BXPC-3 [13] = experiment: Potency index, ratio of vincristine IC50 to compound IC50 for human BxPC3 cells; assay type: functional
H22 [14] = experiment: Antitumor activity against mouse H22 cells allografted in KM mouse assessed as tumor growth inhibition at 20 mg/kg, ip administered on day 1 measured on day 8 relative to control; assay type: functional; details: route intraperitoneal, read-out: TGI
H22 [15] = experiment: Antitumor activity against mouse H22 cells allografted in KM mouse assessed as tumor growth inhibition at 7.5 mg/kg, ip administered on day 1 to 7 measured on day 8 relative to control; assay type: functional; details: route intraperitoneal, read-out: TGI
Mus musculus [16] = experiment: Toxicity in KM mouse allografted with mouse H22 cells assessed as body weight at 7.5 mg/kg, ip administered on day 1 to 7 measured on day 8 (reference value: 30 +/- 3.24 g); assay type: organism-based; set-up: dose 7.5 mg/kg, route intraperitoneal; details: in vivo
MCF7 [17] = experiment: Potency index, ratio of combretastatin A-4 IC50 to compound IC50 for human MCF7 cells; assay type: functional
HT-29 [18] = experiment: Cell cycle arrest in human HT-29 cells assessed as accumulation at G2/M phase at 50 nM after 24 hrs by propidium iodide staining-based flow cytometric analysis (reference value: 7.37%); assay type: functional
HT-29 [19] = experiment: Cell cycle arrest in human HT-29 cells assessed as accumulation at G0/G1 phase at 50 nM after 24 hrs by propidium iodide staining-based flow cytometric analysis (reference value: 68.24%); assay type: functional
HT-29 [20] = experiment: Cell cycle arrest in human HT-29 cells assessed as accumulation at G0/G1 phase at 100 nM after 24 hrs by propidium iodide staining-based flow cytometric analysis (reference value: 68.24%); assay type: functional
HT-29 [21] = experiment: Cell cycle arrest in human HT-29 cells assessed as accumulation at G2/M phase after 24 hrs by propidium iodide staining-based flow cytometric analysis; assay type: functional
HT-29 [22] = experiment: Potency index, ratio of combretastatin A-4 IC50 to compound IC50 for human HT-29 cells; assay type: functional
Tubulin = experiment: Inhibition of tubulin (unknown origin) polymerization measured for 60 mins; assay type: protein-complex assay, Homo sapiens
HT-29 [23] = experiment: Cell cycle arrest in human HT-29 cells assessed as accumulation at G2/M phase at 100 nM after 24 hrs by propidium iodide staining-based flow cytometric analysis (reference value: 7.37%); assay type: functional
Mus musculus [24] = experiment: Toxicity in KM mouse allografted with mouse H22 cells assessed as body weight at 15 mg/kg, ip administered on day 1 and 4 measured on day 8 (reference value: 30 +/- 3.24 g); assay type: organism-based; set-up: dose 15 mg/kg, route intraperitoneal; details: in vivo
HT-29 [25] = experiment: Cell cycle arrest in human HT-29 cells assessed as accumulation at S phase at 12.5 nM after 24 hrs by propidium iodide staining-based flow cytometric analysis (reference value: 24.39%); assay type: functional
MX1 [26] = experiment: Cytotoxicity against taxol-resistant human MX1 cells assessed as growth inhibition after 72 hrs by MTT assay; assay type: functional, cell-based; details: MX1, 72 h
H22 [27] = experiment: Antitumor activity against mouse H22 cells allografted in KM mouse assessed as tumor growth inhibition at 10 mg/kg, ip administered on day 1, 3, 5, 7 measured on day 8 relative to control; assay type: functional; details: route intraperitoneal, read-out: TGI
MX1 [28] = experiment: Cytotoxicity against human MX1 cells assessed as growth inhibition after 72 hrs by MTT assay; assay type: functional, cell-based; details: MX1, 72 h

For `COc1cc(-c2ncoc2-c2ccc(OC)c3[nH]cnc23)cc(OC)c1OC`, the Activity (HT-29 [1]) was 34.83%, the Activity (HT-29 [2]) was 50.29% and the IC50 (KB [3]) was 0.016 µM. The Activity (HT-29 [4]) was 14.75%, the IC50 (KB [5]) was 0.065 µM and the IC50 (BXPC-3 [6]) was 0.031 µM. It also gave an inhibition in vivo at 15 mg/kg (H22 [7]) of 66%, an Activity (Mus musculus [8]) of 30.4 g and an IC50 (HT-29 [9]) of 0.0084 µM. It also gave an IC50 (MCF7 [10]) of 0.025 µM, an Activity (Mus musculus [11]) of 28.4 g and an Activity (HT-29 [12]) of 30.04%. The “Ratio IC50” value (BXPC-3 [13]) was 16, the inhibition in vivo at 20 mg/kg (H22 [14]) was 42% and the inhibition in vivo at 7.5 mg/kg (H22 [15]) was 55%. For the same compound, the Activity (Mus musculus [16]) was 25.5 g, the “Ratio IC50” value (MCF7 [17]) was 8 and the Activity (HT-29 [18]) was 35.63%. The Activity (HT-29 [19]) was 29.54%, the Activity (HT-29 [20]) was 25.71% and the Activity (HT-29 [21]) was “Dose-dependent effect”. For the same compound, the “Ratio IC50” value (HT-29 [22]) was 32, the IC50 (Tubulin) was 0.39 µM and the Activity (HT-29 [23]) was 44.25%. For the same compound, the Activity (Mus musculus [24]) was 24.4 g, the Activity (HT-29 [25]) was 24.97% and the IC50 (MX1 [26]) was 0.249 µM. For the same compound, the inhibition in vivo at 10 mg/kg (H22 [27]) was 52% and the IC50 (MX1 [28]) was 0.397 µM.
